Results from US6683070B2, “Aqueous suspension with good redispersibility” (Senju Pharmaceutical Co., Ltd., priority 1997, dated 2004).
Values belong to the molecule of their own block, whether it stands above or below them.

Columns and labels:
[1] = Surface tension of aqueous suspension (Du Noüy tension meter K122); assay type: physicochemical
Experimental: (§1) Solutions containing a suspending agent in concentrations ranging from 0.000001 to 0.5 w/v % were first prepared. A test drug was added to the solutions to prepare aqueous suspensions. The surface tension of each aqueous suspension thus prepared was measured with the Du Noüy tension meter K122 (Krüss). The suspensions were then filled into 5 ml colorless polypropylene bottles and allowed to stand at 25° C. for 4 days. Each bottle was caused to spin (60 rpm) on the variable mix rotor VMR-5 (60 rpm, manufactured by Iuchi) and the time required for redispersion was measured. In addition, the condition of the redispersed particles was visually examined. As the suspending agent, hydroxypropylmethyl cellulose [Metolose 60SH (TC-5E); manufactured by Shin-Etsu Chemical Co., Ltd.; hereinafter abbreviated as HPMC], methylcellulose (Metolose SM-25; manufactured by Shin-Etsu Chemical Co., Ltd.; abbreviated as MC), or polyvinylpyrrolidone (K30; manufactured by BASF; abbreviated as PVP) was used. As the test drug, fluorometholone 0.05 w/v % or 0.1 w/v % or indomethacin 0.2 w/v % or 1.0 w/v % was used.

[2] = Redispersibility test: redispersion time and visual condition after standing at 25° C. for 4 days; assay type: physicochemical
Experimental: as §1

[3] = indomethacin 0.2 w/v % suspension
[4] = indomethacin 1.0 w/v % suspension
[5] = indomethacin 0.2 w/v % suspension, HPMC below 0.0001 w/v %
[6] = indomethacin 1.0 w/v % suspension, HPMC less than 0.0005 w/v %
[7] = fluorometholone 0.05 w/v % suspension
[8] = fluorometholone 0.1 w/v % suspension
[9] = fluorometholone 0.1 w/v % suspension, MC
[10] = fluorometholone 0.1 w/v % suspension, PVP
[11] = fluorometholone 0.05 w/v % suspension, 0.0001 to 0.002 w/v % HPMC
[12] = fluorometholone 0.1 w/v % suspension, 0.000005 to 0.0001 w/v % HPMC
[13] = fluorometholone 0.1 w/v % suspension, 0.0001 to 0.01 w/v % HPMC
[14] = fluorometholone 0.1 w/v % suspension, 0.0003 to 0.002 w/v % PVP
[15] = fluorometholone 0.1 w/v % suspension, MC 0.0001 w/v % or less

surface tension ([1]; indomethacin 0.2 w/v % suspension, 0.01 w/v % HPMC): 48 mN/m | HPMC concentration at which the decrease in surface tension almost ceased [1, 3]: 0.01 w/v % | HPMC concentration at which the surface tension began to decline [1, 3]: 0.0001 w/v % | surface tension ([1]; indomethacin 0.2 w/v % suspension, HPMC less than 0.0001 w/v %): ~72 mN/m | surface tension ([1]; indomethacin 1.0 w/v % suspension, 0.005 w/v % HPMC): 49.7 mN/m | HPMC concentration at which the decrease in surface tension almost ceased [1, 4]: 0.005 w/v % | HPMC concentration at which the surface tension began to decline [1, 4]: 0.0005 w/v % | surface tension ([1]; indomethacin 1.0 w/v % suspension, HPMC below 0.0005 w/v %): ~72.73 mN/m | redispersion time [2, 5]: ≤ 7 s | redispersion time ([2]; indomethacin 0.2 w/v % suspension, HPMC over 0.01 w/v %): exceeding 12 seconds | redispersion time ([2]; indomethacin 1.0 w/v % suspension, HPMC exceeded 0.005 w/v %): more than 20 seconds | redispersion time [2, 6]: not more than 7 seconds
Structure (SMILES): COc1ccc2c(c1)c(CC(=O)O)c(C)n2C(=O)c1ccc(Cl)cc1 [indomethacin]
condition of the redispersed particles ([2]; indomethacin 0.2 w/v % suspension, 0.0001 to 0.01 w/v % HPMC): the drug being rapidly redispersed without aggregation | condition of the redispersed particles [2, 5]: the dispersed particles aggregated and floated, failing to give a uniform suspension | condition of the redispersed particles ([2]; indomethacin 1.0 w/v % suspension, 0.0005 to 0.005 w/v % HPMC): the drug particles being rapidly redispersed without aggregation | condition of the redispersed particles [2, 6]: the dispersed particles aggregated and floated, failing to give a uniform suspension

surface tension ([1]; fluorometholone 0.05 w/v % suspension, 0.0001 w/v % HPMC): 65.1 mN/m | surface tension ([1]; fluorometholone 0.05 w/v % suspension, 0.001 w/v % PVP): 69.5 mN/m | surface tension ([1]; fluorometholone 0.05 w/v % suspension, 0.002 w/v % HPMC): 50.5 mN/m | HPMC concentration at which the decrease in surface tension almost ceased [1, 7]: 0.002 w/v % | HPMC concentration at which the surface tension began to decline [1, 7]: 0.0001 w/v % | PVP concentration at which the decrease in surface tension almost ceased ([1]; fluorometholone 0.05 w/v % suspension, PVP): 0.001 w/v % | surface tension ([1]; fluorometholone 0.05 w/v % suspension, PVP at the concentration where the decline began (printed 0.0902 w/v % PVC)): 72.3 mN/m | surface tension ([1]; fluorometholone 0.1 w/v % suspension, 0.002 w/v % PVP): 69.5 mN/m | surface tension ([1]; fluorometholone 0.1 w/v % suspension, 0.01 w/v % MC): 54.5 mN/m | HPMC concentration at which the decrease in surface tension almost ceased [1, 8]: 0.01 w/v | HPMC concentration at which the surface tension began to decline [1, 8]: 0.0001 w/v % | MC concentration at which the decrease in surface tension almost ceased [1, 9]: 0.01 w/v % | MC concentration at which the surface tension began to decline [1, 9]: 0.0001 w/v % | surface tension ([1]; fluorometholone 0.1 w/v % suspension, MC 0.0001 w/v % and below): ~72.5 mN/m | PVP concentration at which the decrease in surface tension almost ceased [1, 10]: 0.002 w/v % | PVP concentration at which the surface tension began to decline [1, 10]: 0.0003 w/v % | surface tension ([1]; fluorometholone 0.1 w/v % suspension, PVP less than 0.0003 w/v %): ~72.5 mN/m | condition of the dispersion [2, 11]: satisfactory | time required for redispersion [2, 11]: about 6 seconds | time required for redispersion [2, 12]: 2 s | redispersion time [2, 13]: less than 4 seconds | condition of the dispersion [2, 14]: satisfactory | time necessary for redispersion [2, 14]: about 6 seconds | redispersion time ([2]; fluorometholone 0.1 w/v % suspension, HPMC over 0.01 w/v %): exceeded 5 seconds | redispersion time [2, 15]: ≤ 2 s | redispersion time ([2]; fluorometholone 0.1 w/v % suspension, MC over 0.01 w/v %): ~20 s | redispersion time ([2]; fluorometholone 0.1 w/v % suspension, PVP in excess of 0.002 w/v %): ≥ 18 s
Structure (SMILES): CC(=O)[C@@]1(O)CC[C@H]2[C@@H]3C[C@H](C)C4=CC(=O)C=C[C@]4(C)[C@@]3(F)[C@@H](O)C[C@@]21C [fluorometholone]
condition of the redispersed particles [2, 12]: the dispersed particles aggregated and floated, failing to give a uniform suspension | condition of the redispersed particles [2, 13]: a uniform suspension was obtained without aggregation of suspended particles | condition of the redispersed particles ([2]; fluorometholone 0.1 w/v % suspension, 0.0001 to 0.01 w/v % MC): redispersion taking place rapidly without aggregation of dispersed particles | condition of the redispersed particles [2, 15]: the dispersed particles aggregated and floated, failing to give a uniform suspension
